Experiments:
human VDR = target: T1, human VDR (Homo sapiens, UniProt P11473); test: Evaluation of VDR transcription activity in human osteoblasts (HOS cells), luciferase reporter; conditions: Activity (EC50, VDR transcription activity), HOS cells transfected with human VDR, human RXRα and DR3 luciferase reporter; 21 hours
T1 sequence (P11473 1-427): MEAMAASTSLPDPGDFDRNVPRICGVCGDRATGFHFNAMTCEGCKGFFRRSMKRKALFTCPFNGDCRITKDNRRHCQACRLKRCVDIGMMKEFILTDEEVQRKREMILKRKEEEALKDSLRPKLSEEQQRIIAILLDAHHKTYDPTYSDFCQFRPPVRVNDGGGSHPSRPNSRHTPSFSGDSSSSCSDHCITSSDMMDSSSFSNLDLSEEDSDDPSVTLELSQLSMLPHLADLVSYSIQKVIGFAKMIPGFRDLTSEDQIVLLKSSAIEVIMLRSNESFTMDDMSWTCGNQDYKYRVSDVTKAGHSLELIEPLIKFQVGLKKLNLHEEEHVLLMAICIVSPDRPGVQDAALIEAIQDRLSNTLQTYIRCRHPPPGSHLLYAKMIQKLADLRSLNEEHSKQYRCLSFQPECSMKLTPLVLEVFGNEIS
T1 sequence (P19793 1-462 partner): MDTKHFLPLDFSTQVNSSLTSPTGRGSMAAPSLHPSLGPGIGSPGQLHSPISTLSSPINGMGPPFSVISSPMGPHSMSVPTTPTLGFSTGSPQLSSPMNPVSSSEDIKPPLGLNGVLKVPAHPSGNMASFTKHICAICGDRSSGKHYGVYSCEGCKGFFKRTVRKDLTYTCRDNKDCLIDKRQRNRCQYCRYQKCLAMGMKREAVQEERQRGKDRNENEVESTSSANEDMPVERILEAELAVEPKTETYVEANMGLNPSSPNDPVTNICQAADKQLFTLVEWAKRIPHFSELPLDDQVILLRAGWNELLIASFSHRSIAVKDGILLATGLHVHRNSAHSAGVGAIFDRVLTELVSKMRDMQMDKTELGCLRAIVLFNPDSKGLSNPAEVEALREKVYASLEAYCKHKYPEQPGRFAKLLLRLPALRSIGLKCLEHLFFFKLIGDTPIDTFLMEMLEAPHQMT

[1] = system: rat oligodendrocyte progenitor cells; test: Promotive activity of rat oligodendrocyte progenitor cell differentiation-1 (MBP gene expression, mRNA); type: cell-based; conditions: Rattus norvegicus, Oligodendrocyte progenitor cell, 96 h, read-out: promotive activity at T3 base (MBP gene expression; DMSO 0%, T3 100%), 4 days, MBP/β actin mRNA
Method: Regarding vitamin D derivatives, which was confirmed to act on the vitamin D receptor (VDR) in Example 352, the promotive activity of oligodendrocyte progenitor cell (OPC) differentiation was evaluated by MBP gene expression (mRNA).
A forebrain obtained from SD rat (Charles River Japan, 1 day old) was crushed with 70 μm Cell Strainer (Falcon #352350), and a cell suspension was prepared by collecting the cells in oligodendrocyte progenitor cell separation medium (20% FBS/2 mM Glutamax (Gibco #35050-061)/i mM sodium pyruvate (Gibco #11360-070)/1% penicillin-streptomycin (Invitrogen #15140-122)/DMEM (Gibco #11960-044)). The cell suspension was seeded in a poly-D-lysine coated T75 flask (Thermo Fisher Scientific #132704) and cultured for about 2 weeks. After culturing, the flask was shaken using a rotary shaker ([…] #WB-101SRC) for about 1 hour (37° C., 100 rpm), and the supernatant was discarded to remove microglia. Subsequently, oligodendrocyte progenitor cell separation medium was added to the flask, and the mixture was similarly shaken for about 22 hours (37° C., 200 rpm), and the supernatant was collected to prepare oligodendrocyte progenitor cells.
The oligodendrocyte progenitor cell prepared was suspended in a differentiation medium (2% B27 (Thermo Fisher Scientific, Inc. #17504-044)/1% penicillin-streptomycin (Invitrogen Corporation #15140-122)/10 ng/mL CNTF (PeproTech Inc. #AF-450-13)/DMEM (Gibco #11960-044)), and seeded on a 96-well plate coated with poly-L-ornithine (FUJIFILM Wako Pure Chemical Corporation #163-27421) under the condition of 0.65×10^4 cells/well, and on a 384-well plate under the condition of 2×10^3 cells/well using an automatic dispensing system (LABCYTE #Echo555). […] After culturing, the cells seeded on the 96-well plate were subjected to immunostaining against MBP using following methods: fixation (4% paraformaldehyde solution, 30 minutes, room temperature), PBS washing, membrane permeation treatment (0.1% Trion X-100 (SIGMA #X100-100ML)/PBS, 3 minutes, room temperature), blocking (3% BSA (SIGMA #A9647-10G)/PBS, 1 hour, room temperature), primary antibody reaction (MBP antibody (abcam plc #ab40390), 2.5 μg/mL, 4° C., 24 hours), PBS washing, secondary antibody reaction (Alexa488 anti-rabbit IgG (Thermo Fisher Scientific, Inc. #A-11034), 5 μg/mL, room temperature, 1 hour), PBS washing, and nuclear staining (Hoechst33342 (DOJINDO #NU043), 10 μg/mL, room temperature, 5 minutes). Subsequently, images of each well were acquired using a fluorescence microscope (KEYENCE CORPORATION #BZ-X800), the number of MBP-positive cells and Hoechst 33342-positive cells were measured using an image analysis application (KEYENCE CORPORATION #BZ-X800 Analyzer), and then the ratio (the number of MBP-positive cells/the number of Hoechst33342-positive cells) was calculated. The cells seeded on the 384-well plate were subjected to real-time PCR using Cells-to-CT 1-Step TaqMan Kit (Thermo Fisher Scientific, Inc. #A25602) and QuantStudio 12K Flex Real-Time PCR System (Thermo Fisher Scientific, Inc. #4472380). The experiment was performed in accordance with the protocol attached to the kit. MBP (Thermo Fisher Scientific, Inc. #Assay ID Rn00690616_ml) and β actin (Thermo Fisher Scientific, Inc. #Assay ID Rn00667869_ml) were used as primers, and the expression levels of each were measured and the ratio (MBP/β actin) was calculated.

| SMILES | EC50 (human VDR) | activation at 1 µM [1] |
| --- | --- | --- |
| C=C1[C@H](O)CC(=C/C=C2\CCC[C@]3(C)[C@@H]([C@H](C)CCN4CCOC[C@H]4C)CC[C@@H]23)C[C@H]1O [Compound D031, (1R,3R)-5-(2-((1R,3aS,7aR,E)-7a-methyl-1-((R)-4-((R)-3-methylmorpholino)butan-2-yl)octahydro-4H-inden-4-ylidene)ethylidene)-2-methylenecyclohexane-1,3-diol] | 1 to 10 nM | ≥ 20% |
| C=C1/C(=C\C=C2/CCC[C@]3(C)[C@@H]([C@H](C)CN4CCC[C@H](C(C)(F)F)C4)CC[C@@H]23)C[C@@H](O)[C@H](C)[C@@H]1O [Compound C054, (1R,2S,3S,Z)-5-(2-((1R,3aS,7aR,E)-1-((S)-1-((S)-3-(1,1-difluoroethyl)piperidin-1-yl)propan-2-yl)-7a-methyloctahydro-4H-inden-4-ylidene)ethylidene)-2-methyl-4-methylenecyclohexane-1,3-diol] | 10 to 100 nM | ≥ 20% |
| C=C1/C(=C\C=C2/CCC[C@]3(C)[C@@H]([C@H](C)CN4CC[C@H](OC(F)F)C4)CC[C@@H]23)C[C@@H](O)C[C@@H]1O [Compound B047, (1R,3S,Z)-5-(2-((1R,3aS,7aR,E)-1-((S)-1-((S)-3-(difluoromethoxy)pyrrolidin-1-yl)propan-2-yl)-7a-methyloctahydro-4H-inden-4-ylidene)ethylidene)-4-methylenecyclohexane-1,3-diol] | 10 to 100 nM | ≥ 20% |
| C[C@H](CCN1CCO[C@@H](C)C1)[C@H]1CC[C@H]2/C(=C/C=C3C[C@@H](O)C[C@H](O)C3)CCC[C@]12C [Compound D041, (1R,3R)-5-(2-((1R,3aS,7aR,E)-7a-methyl-1-((R)-4-((S)-2-methylmorpholino)butan-2-yl)octahydro-4H-inden-4-ylidene)ethylidene)cyclohexane-1,3-diol] | 100 to 1000 nM | ≥ 20% |
| C[C@H](CCN1CCOC2(CC2)C1)[C@H]1CC[C@H]2/C(=C/C=C3C[C@@H](O)C[C@H](O)C3)CCC[C@]12C [Compound D030, (1R,3R)-5-(2-((1R,3aS,7aR,E)-1-((R)-4-(4-oxa-7-azaspiro[2.5]octan-7-yl)butan-2-yl)-7a-methyloctahydro-4H-inden-4-ylidene)ethylidene)cyclohexane-1,3-diol] | 1 to 10 nM | ≥ 20% |
| C=C1[C@H](O)CC(=C/C=C2\CCC[C@]3(C)[C@@H]([C@H](C)CN4CCO[C@H](C(F)F)C4)CC[C@@H]23)C[C@H]1O [Compound D007, (1R,3R)-5-(2-((1R,3aS,7aR,E)-1-((S)-1-((S)-2-(difluoromethyl)morpholino)propan-2-yl)-7a-methyloctahydro-4H-inden-4-ylidene)ethylidene)-2-methylenecyclohexane-1,3-diol] | 1 to 10 nM | ≥ 20% |
| C=C1[C@H](O)CC(=C/C=C2\CCC[C@]3(C)[C@@H]([C@H](C)CN4CCO[C@@H](C(F)F)C4)CC[C@@H]23)C[C@H]1O [Compound D008, (1R,3R)-5-(2-((1R,3aS,7aR,E)-1-((S)-1-((R)-2-(difluoromethyl)morpholino)propan-2-yl)-7a-methyloctahydro-4H-inden-4-ylidene)ethylidene)-2-methylenecyclohexane-1,3-diol] | 1 to 10 nM | ≥ 20% |
| C=C1/C(=C\C=C2/CCC[C@]3(C)[C@@H]([C@H](C)CN4CC[C@@H](OC(F)F)C4)CC[C@@H]23)C[C@@H](O)C[C@@H]1O [Compound B048, (1R,3S,Z)-5-(2-((1R,3aS,7aR,E)-1-((S)-1-((R)-3-(difluoromethoxy)pyrrolidin-1-yl)propan-2-yl)-7a-methyloctahydro-4H-inden-4-ylidene)ethylidene)-4-methylenecyclohexane-1,3-diol] | 10 to 100 nM | ≥ 20% |
| C[C@H](CCN1CC[C@H](CC(F)F)C1)[C@H]1CC[C@H]2/C(=C/C=C3C[C@@H](O)C[C@H](O)C3)CCC[C@]12C [Compound B082, (1R,3R)-5-(2-((1R,3aS,7aR,E)-1-((R)-4-((R)-3-(2,2-difluoroethyl)pyrrolidin-1-yl)butan-2-yl)-7a-methyloctahydro-4H-inden-4-ylidene)ethylidene)cyclohexane-1,3-diol] | 10 to 100 nM | ≥ 20% |

Further lines, with some results ahead:

| EC50 (human VDR) | SMILES | activation at 1 µM [1] |
| --- | --- | --- |
| < 1 nM | C[C@H](CN1CCCC(O)(C(F)F)C1)[C@H]1CC[C@H]2/C(=C/C=C3C[C@@H](O)C[C@H](O)C3)CCC[C@]12C (single isomer, unassigned) [Compound C035a] | ≥ 20% |
| 10 to 100 nM | COC1(C)CCCN(C[C@@H](C)[C@H]2CC[C@H]3/C(=C/C=C4C[C@@H](O)C[C@H](O)C4)CCC[C@]23C)C1 (single isomer, unassigned) [Compound C045a] | ≥ 20% |
| 1 to 10 nM | C=C1[C@H](O)CC(=C/C=C2\CCC[C@]3(C)[C@@H]([C@H](C)CCN4CCOC(C)(C)C4)CC[C@@H]23)C[C@H]1O [Compound D029, (1R,3R)-5-(2-((1R,3aS,7aR,E)-1-((R)-4-(2,2-dimethylmorpholino)butan-2-yl)-7a-methyloctahydro-4H-inden-4-ylidene)ethylidene)-2-methylenecyclohexane-1,3-diol] | ≥ 20% |
| 1 to 10 nM | C=C1[C@H](O)CC(=C/C=C2\CCC[C@]3(C)[C@@H]([C@H](C)CN4CCOC5(CCCC5)C4)CC[C@@H]23)C[C@H]1O [Compound D012, (1R,3R)-5-(2-((1R,3aS,7aR,E)-1-((S)-1-(6-oxa-9-azaspiro[4.5]decan-9-yl)propan-2-yl)-7a-methyloctahydro-4H-inden-4-ylidene)ethylidene)-2-methylenecyclohexane-1,3-diol] | ≥ 20% |
| 10 to 100 nM | C=C1/C(=C\C=C2/CCC[C@]3(C)[C@@H]([C@@H](C)CN4CCOCC4)CC[C@@H]23)C[C@@H](O)[C@H](C)[C@@H]1O [Compound D003, (1R,2S,3S,Z)-2-methyl-5-(2-((1R,3aS,7aR,E)-7a-methyl-1-((R)-1-morpholinopropan-2-yl)octahydro-4H-inden-4-ylidene)ethylidene)-4-methylenecyclohexane-1,3-diol] | ≥ 20% |
